Laboratory results: patent publication US20140147397A1, “STABLE AMORPHOUS SOLID FORM OF A TRIAZINE DERIVATIVE AND THE CORRESPONDING MANUFACTURING PROCESS” (3V SIGMA S.P.A., priority 2012, published 2014)

Legend:
Assay type in all cases: physicochemical
[1] = Dissolution rate test in caprylic/capric triglyceride; conditions: 4.0 g powder in 96.0 g caprylic/capric triglyceride, stirring, 25° C., visual inspection
Protocol: (§1) Description of dissolution rate test. 4.0 g of powder was dispersed under stirring in 96.0 g of caprylic/capric triglyceride solvent at 25° C. The total dissolution time was measured, with visual inspection, noting the time of complete disappearance of any heterogeneity in the form of particles or opalescence in the solution.

[2] = Dissolution rate test in ethylhexyl stearate; conditions: 4.0 g powder in 96.0 g ethylhexyl stearate, stirring, 25° C., visual inspection
Protocol: as §1, with “ethylhexyl stearate” for “caprylic/capric triglyceride”

[3] = Dissolution rate test in octyl dodecanol; conditions: 4.0 g powder in 96.0 g octyl dodecanol, stirring, 25° C., visual inspection
Protocol: as §1, with “octyl dodecanol” for “caprylic/capric triglyceride”

[4] = Stability of the amorphous solid form by DSC; conditions: for solid form stability by DSC: DSC technique
Protocol: Samples 1C and 1A were characterised by the differential scanning calorimetry (DSC) technique. […] The amorphous solid sample 1A according to the present invention presented a first exothermic transition (corresponding to a formation of crystalline form) at temperatures of between 50 and 90° C., and subsequently at 128° C., the endothermic transition corresponding to melting of the crystalline form that formed at lower temperatures.
Sample 1A was stored for 12 months at room temperature and subjected to a second DSC measurement. Its appearance was still that of a white powder.

`CCCCC(CC)COC(=O)c1ccc(Nc2nc(Nc3ccc(C(=O)OCC(CC)CCCC)cc3)nc(Nc3ccc(C(=O)OCC(CC)CCCC)cc3)n2)cc1` (stereo not drawn) [Sample 1A] gave a dissolution time [1] of 15 min, a dissolution time [2] of 40 min and a dissolution time [3] of 90 min. The “DSC curve after storage (stability of amorphous form)” value ([4]; stored for 12 months at room temperature, second DSC measurement) was “identical to the curve obtained a year earlier”.

With `CCCCC(CC)COC(=O)c1ccc(Nc2nc(Nc3ccc(C(=O)OCC(CC)CCCC)cc3)nc(Nc3ccc(C(=O)OCC(CC)CCCC)cc3)n2)cc1` (stereo not drawn) [Sample 2A] the dissolution time [1] was 15 min and the “solid form stability by DSC” value [4] was “stable amorphous form”.

With `CCCCC(CC)COC(=O)c1ccc(Nc2nc(Nc3ccc(C(=O)OCC(CC)CCCC)cc3)nc(Nc3ccc(C(=O)OCC(CC)CCCC)cc3)n2)cc1` (stereo not drawn) [Sample 2C, reference compound] the dissolution time [1] was “over 90 minutes”.

In the case of `CCCCC(CC)COC(=O)c1ccc(Nc2nc(Nc3ccc(C(=O)OCC(CC)CCCC)cc3)nc(Nc3ccc(C(=O)OCC(CC)CCCC)cc3)n2)cc1` (stereo not drawn) [Sample 1C, reference compound], the dissolution time [1] is reported as “over 90 minutes”, the dissolution time [2] is reported as “over 420 minutes (opaque white dispersion)” and the dissolution time [3] is reported as “over 420 minutes (insoluble-opaque white dispersion)”.

For `CCCCC(CC)COC(=O)c1ccc(Nc2nc(Nc3ccc(C(=O)OCC(CC)CCCC)cc3)nc(Nc3ccc(C(=O)OCC(CC)CCCC)cc3)n2)cc1` (stereo not drawn) [Sample 3A], the dissolution time [1] was 15 min and the “solid form stability by DSC” value [4] was “stable amorphous form”.
